Measured values: ChEMBL document CHEMBL4049439, “Synthesis and Characterization of Tetrahydropyran-Based Bacterial Topoisomerase Inhibitors with Antibacterial Activity against Gram-Negative Bacteria” (J Med Chem, 2017)
In brackets after ≈: the same amount, converted by molar mass. Activity calls are given as the source filed them. The rule behind the calls is not given here.

Tests used:
Escherichia coli = test: Antibacterial activity against wild-type Escherichia coli ATCC 25922 by CLSI broth microdilution method; format: functional
Acinetobacter baumannii [1] = test: Antibacterial activity against fluoroquinolone-resistant Acinetobacter baumannii T6474 by CLSI broth microdilution method; format: functional
Staphylococcus aureus = test: Antibacterial activity against Staphylococcus aureus ATCC 29213 by CLSI broth microdilution method; format: functional
Pseudomonas aeruginosa [2] = test: Antibacterial activity against Pseudomonas aeruginosa ATCC 27853 by CLSI broth microdilution method; format: functional
[3] = Inhibition of wild-type Escherichia coli DNA topoisomerase-4 mediated supercoiled pBR322 DNA relaxation by ethidium bromide based agarose gel electrophoresis
[4] = (§1) Inhibition of wild-type Acinetobacter baumannii DNA topoisomerase-4 mediated supercoiled pBR322 DNA relaxation by ethidium bromide based agarose gel electrophoresis
[5] = (§2) Inhibition of wild-type Pseudomonas aeruginosa DNA gyrase supercoiling activity using relaxed pBR322 DNA as substrate by ethidium bromide based agarose gel electrophoresis
[6] = Inhibition of wild-type Escherichia coli DNA gyrase supercoiling activity using relaxed pBR322 DNA as substrate by ethidium bromide based agarose gel electrophoresis
[7] = (§3) Inhibition of wild-type Pseudomonas aeruginosa DNA topoisomerase-4 mediated supercoiled pBR322 DNA relaxation by ethidium bromide based agarose gel electrophoresis
[8] = (§4) Inhibition of wild-type Acinetobacter baumannii DNA gyrase supercoiling activity using relaxed pBR322 DNA as substrate by ethidium bromide based agarose gel electrophoresis
Acinetobacter baumannii [9] = test: as §1
Pseudomonas aeruginosa [10] = test: as §2
Pseudomonas aeruginosa [11] = test: as §3
Acinetobacter baumannii [12] = test: as §4
[13] = Lipophilicity, log D of the compound at pH 7.4; format: physicochemical; settings: buffer

Compound	MIC (Escherichia coli) [µg/mL]	MIC (Acinetobacter baumannii [1]) [µg/mL]	MIC (Staphylococcus aureus) [µg/mL]	MIC (Pseudomonas aeruginosa [2]) [µg/mL]	IC50 [3] [nM]	IC50 [4] [nM]	IC50 [5] [nM]	IC50 [6] [nM]	IC50 [7] [nM]	IC50 [8] [nM]	inhibition (Acinetobacter baumannii [9])	inhibition (Pseudomonas aeruginosa [10])	inhibition (Pseudomonas aeruginosa [11])	inhibition (Acinetobacter baumannii [12])	logD [13]
COc1cnc2ccc(=O)n(C[C@H](N)[C@@H]3CC[C@@H](NCc4ccc5c(n4)NC(=O)CO5)CO3)c2c1	1 (≈ 2.08 µM)	4 (≈ 8.32 µM)	1 (≈ 2.08 µM)	4 (≈ 8.32 µM)	30	125	30	500	30	30					
COc1ccc2nccc(CC(N)[C@@H]3CC[C@@H](NCc4ccc5c(n4)NC(=O)CO5)CO3)c2n1 (mixture of isomers)	0.125	0.5	0.125	2	500	500	500	500	500	500					
COc1ccc2ncc(=O)n(C[C@H](N)[C@@H]3CC[C@@H](NCc4ccc5c(n4)NC(=O)CO5)CO3)c2c1	0.25 (≈ 0.52 µM)	2 (≈ 4.16 µM)	0.063 (≈ 0.131 µM)	4 (≈ 8.32 µM)	30	125	30	500	30	30					
COc1ccc2ccc(F)c(C[C@H](N)[C@@H]3CC[C@@H](NCc4ccc5c(n4)NC(=O)CO5)CO3)c2n1	≤ 0.03	≤ 0.03	0.03 (≈ 0.0623 µM)	1 (≈ 2.08 µM)	≤ 10	30	30	30	30	30					
COc1ccc2nccc([C@H](N)C[C@@H]3CC[C@@H](NCc4ccc5c(n4)NC(=O)CO5)CO3)c2n1											inactive	inactive	inactive	inactive	
COc1ccc2nccc(C(N)C[C@@H]3CC[C@@H](NCc4ccc5c(n4)NC(=O)CO5)CO3)c2n1 (mixture of isomers)	1	8	2	8	125	125	500	8000	125	2000					
COc1ccc2ccc(=O)n(C[C@H](O)[C@@H]3CC[C@@H](NCc4cc5c(nn4)OCCS5)CO3)c2n1	> 8	8 (≈ 16.5 µM)	0.031 (≈ 0.0638 µM)	> 8	125	500	500	8000	125	2000					
COc1ccc2ccc(=O)n(C[C@H](O)[C@@H]3CC[C@@H](NCc4cc5c(cn4)OCCO5)CO3)c2n1	4 (≈ 8.54 µM)	0.5 (≈ 1.07 µM)	≤ 0.03	> 8	125	125	125	8000	125	125					
COc1ccc2ccc(=O)n(C[C@H](O)[C@@H]3CC[C@@H](NCc4cc5c(nn4)OCCO5)CO3)c2n1	> 8	> 8	0.06 (≈ 0.128 µM)	> 8	2000	8000	8000	32000	500	8000					
COc1ccc2ncc(F)c(C[C@@H](N)[C@@H]3CC[C@@H](NCc4ccc5c(n4)NC(=O)CO5)CO3)c2n1	1 (≈ 2.07 µM)	1 (≈ 2.07 µM)	1 (≈ 2.07 µM)	> 8	125	125	125	500	125	500					
COc1ccc2ncc(=O)n(C[C@H](N)[C@@H]3CC[C@@H](NCc4ccc5c(n4)NC(=O)CO5)CO3)c2n1	0.5 (≈ 1.04 µM)	2 (≈ 4.15 µM)	0.125 (≈ 0.26 µM)	2 (≈ 4.15 µM)	125	125	125	500	30	125					
COc1ccc2ccc(=O)n(C[C@H](N)[C@@H]3CC[C@@H](NCc4ccc5c(n4)NC(=O)CO5)CO3)c2c1	0.25 (≈ 0.521 µM)	2 (≈ 4.17 µM)	0.25 (≈ 0.521 µM)	4 (≈ 8.34 µM)	30	125	125	125	500	125					
COc1ccc2ncc(F)c(C[C@H](O)C34CCC(NCc5ccc6c(n5)NC(=O)CO6)(CC3)CO4)c2n1															2
COc1ccc2ccc(=O)n(C[C@H](O)[C@@H]3CC[C@@H](NCc4cc5c(cn4)OCCS5)CO3)c2n1	4 (≈ 8.25 µM)	0.5 (≈ 1.03 µM)	≤ 0.03	> 8	30	30	500	500	≤ 10	125					
COc1ccc2nccc(C[C@H](N)[C@@H]3CC[C@@H](NCc4ccc5c(n4)NC(=O)CO5)CO3)c2n1	0.125 (≈ 0.269 µM)	0.25 (≈ 0.538 µM)	0.06 (≈ 0.129 µM)	0.5 (≈ 1.08 µM)	30	30	125	125	30	125					
O=C(O)c1cn(C2CC2)c2cc(N3CCNCC3)c(F)cc2c1=O [CIPROFLOXACIN]						32000	500		8000	2000					
COc1ccc2nccc([C@@H](N)C[C@@H]3CC[C@@H](NCc4ccc5c(n4)NC(=O)CO5)CO3)c2n1											inactive	inactive	inactive	inactive	
COc1ccc2ncc(F)c(C[C@H](O)[C@@H]3CC[C@@H](NCc4cc5c(nn4)OCCS5)CO3)c2n1		2 (≈ 4.1 µM)				125	500		125	2000					
COc1cnc2ccc(=O)n(C[C@H](N)[C@@H]3CC[C@@H](NCc4ccc5c(n4)NC(=O)CO5)CO3)c2n1	0.5 (≈ 1.04 µM)	2 (≈ 4.15 µM)	0.5 (≈ 1.04 µM)	1 (≈ 2.08 µM)	30	30	125	500	30	125					
